Consider 14 compounds from ChEMBL document CHEMBL5370576, “Design, synthesis and biological evaluation of 2,4,6- trisubstituted triazine derivatives as new nonpeptide small-molecule SIRT5 inhibitors” (Bioorg Med Chem, 2023).

Calls of active or inactive are those of the source. The calls are words filed in the database; no cut-off is given here.

The target in experiment [1] is T1, NAD-dependent protein deacylase sirtuin-5, mitochondrial (Homo sapiens, UniProt Q9NXA8). Description: Inhibition of human recombinant SIRT5 (34 to 269 residues) using Ac-Leu-Gly-Ser-Lys (Su)-AMC as fluorogenic substrate incubated for 2 hrs in presence of NAD+ by fluorescence based analysis.
Target sequence in this assay (Q9NXA8 whole entry, the tested form may be a part): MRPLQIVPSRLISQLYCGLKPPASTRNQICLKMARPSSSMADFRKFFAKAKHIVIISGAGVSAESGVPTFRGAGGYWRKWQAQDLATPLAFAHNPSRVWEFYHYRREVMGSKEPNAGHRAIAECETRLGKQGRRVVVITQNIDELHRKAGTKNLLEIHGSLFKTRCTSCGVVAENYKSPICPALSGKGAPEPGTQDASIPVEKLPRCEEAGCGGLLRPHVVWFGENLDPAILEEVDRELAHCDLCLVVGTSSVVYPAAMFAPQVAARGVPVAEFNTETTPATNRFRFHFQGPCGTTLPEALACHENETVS
Experiment [2] deals with T1, NAD-dependent protein deacylase sirtuin-5, mitochondrial. Put plainly: Inhibition of human recombinant SIRT5 (34 to 269 residues) using Ac-Leu-Gly-Ser-Lys (Su)-AMC as fluorogenic substrate incubated for 2 hrs in presence of NAD+ at 800 uM by fluorescence based analysis.
Target sequence in this assay (Q9NXA8 whole entry, the tested form may be a part): as above
The target is the same in experiment [3]. Put plainly: Competitive inhibition of human recombinant SIRT5 (34 to 269 residues) incubated for 2 hrs in presence of 100 uM of fluorogenic substrate Ac-Leu-Gly-Ser-Lys (Su)-AMC by fluorescence based analysis.
Target sequence in this assay (Q9NXA8 whole entry, the tested form may be a part): as above
Experiment [4] shares this target. Put plainly: Competitive inhibition of human recombinant SIRT5 (34 to 269 residues) incubated for 2 hrs in presence of 33 uM of fluorogenic substrate Ac-Leu-Gly-Ser-Lys (Su)-AMC by fluorescence based analysis.
Target sequence in this assay (Q9NXA8 whole entry, the tested form may be a part): as above
Experiment [5] has the same target. Description: Competitive inhibition of human recombinant SIRT5 (34 to 269 residues) incubated for 2 hrs in presence of 11 uM of fluorogenic substrate Ac-Leu-Gly-Ser-Lys (Su)-AMC by fluorescence based analysis.
Target sequence in this assay (Q9NXA8 whole entry, the tested form may be a part): as above
Experiment [6] has the same target. Put plainly: Competitive inhibition of human recombinant SIRT5 (34 to 269 residues) incubated for 2 hrs in presence of 300 uM of fluorogenic substrate Ac-Leu-Gly-Ser-Lys (Su)-AMC by fluorescence based analysis.
Target sequence in this assay (Q9NXA8 whole entry, the tested form may be a part): as above
Experiment [7] deals with T2, NAD-dependent protein deacetylase sirtuin-1 (Homo sapiens, UniProt Q96EB6).
T2 sequence (Q96EB6 whole entry): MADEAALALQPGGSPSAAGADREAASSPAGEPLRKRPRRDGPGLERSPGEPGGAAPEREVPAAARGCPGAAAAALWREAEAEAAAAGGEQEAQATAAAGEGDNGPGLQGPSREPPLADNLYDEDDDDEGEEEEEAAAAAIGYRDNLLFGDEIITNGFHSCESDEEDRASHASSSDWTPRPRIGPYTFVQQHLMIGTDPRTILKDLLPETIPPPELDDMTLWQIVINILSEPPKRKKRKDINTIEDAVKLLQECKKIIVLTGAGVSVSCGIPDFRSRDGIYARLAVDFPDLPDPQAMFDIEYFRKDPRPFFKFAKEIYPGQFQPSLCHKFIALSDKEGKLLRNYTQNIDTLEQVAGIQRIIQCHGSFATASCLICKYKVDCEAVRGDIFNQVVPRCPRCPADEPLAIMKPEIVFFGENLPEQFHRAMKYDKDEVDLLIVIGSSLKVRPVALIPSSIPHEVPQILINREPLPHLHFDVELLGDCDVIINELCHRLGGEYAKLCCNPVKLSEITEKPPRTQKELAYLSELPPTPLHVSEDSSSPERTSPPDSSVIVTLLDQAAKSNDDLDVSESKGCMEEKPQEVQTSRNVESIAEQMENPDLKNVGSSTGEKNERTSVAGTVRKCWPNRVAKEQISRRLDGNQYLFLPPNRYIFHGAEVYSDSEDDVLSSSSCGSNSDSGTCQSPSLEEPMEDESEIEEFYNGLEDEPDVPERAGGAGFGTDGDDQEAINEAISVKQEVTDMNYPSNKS
Put plainly: Inhibition of recombinant SIRT1 (unknown origin) using Ac-Arg-Leu-Ile-Lys-(Ac) AMC as substrate in presence of NAD+.

Experiment [8] concerns the target T1, NAD-dependent protein deacylase sirtuin-5, mitochondrial. Put plainly: Inhibition of human recombinant SIRT5 (34 to 269 residues) using Ac-Leu-Gly-Ser-Lys (Su)-AMC as fluorogenic substrate incubated for 2 hrs in presence of NAD+ at 50 uM by fluorescence based analysis.
The target of experiment [9] is T3, NAD-dependent protein deacetylase sirtuin-2 (Homo sapiens, UniProt Q8IXJ6).
T3 sequence (Q8IXJ6 whole entry): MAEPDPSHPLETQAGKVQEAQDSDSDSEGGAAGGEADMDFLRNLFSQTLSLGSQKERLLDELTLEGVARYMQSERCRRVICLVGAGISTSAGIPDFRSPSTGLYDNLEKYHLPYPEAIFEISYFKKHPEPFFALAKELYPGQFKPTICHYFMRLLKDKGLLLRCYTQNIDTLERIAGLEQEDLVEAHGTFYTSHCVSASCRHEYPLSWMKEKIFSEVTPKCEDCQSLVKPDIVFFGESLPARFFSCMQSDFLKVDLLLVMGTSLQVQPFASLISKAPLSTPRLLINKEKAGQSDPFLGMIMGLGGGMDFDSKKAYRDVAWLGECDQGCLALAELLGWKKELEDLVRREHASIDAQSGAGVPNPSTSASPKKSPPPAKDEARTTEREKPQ
Description: Inhibition of human recombinant SIRT2 using Ac-Glu-Thr-Asp-Lys (Dec)-AM as substrate in presence of NAD+.

Experiment [10] deals with T1, NAD-dependent protein deacylase sirtuin-5, mitochondrial. Description: Inhibition of human recombinant SIRT5 (34 to 269 residues) using Ac-Leu-Gly-Ser-Lys (Su)-AMC as fluorogenic substrate incubated for 2 hrs in presence of NAD+ at 100 uM by fluorescence based analysis.
For experiment [11] the target is unchanged. Put plainly: Inhibition of human recombinant SIRT5 (34 to 269 residues) using Ac-Leu-Gly-Ser-Lys (Su)-AMC as fluorogenic substrate incubated for 2 hrs in presence of NAD+ at 200 uM by fluorescence based analysis.
Experiment [12] shares this target. Description: Inhibition of human recombinant SIRT5 (34 to 269 residues) using Ac-Leu-Gly-Ser-Lys (Su)-AMC as fluorogenic substrate incubated for 2 hrs in presence of NAD+ at 400 uM by fluorescence based analysis.
Experiment [13] has the same target. Put plainly: Competitive inhibition of human recombinant SIRT5 (34 to 269 residues) using Ac-Leu-GlySer-Lys (Su)-AMC as substrate at 0 to 50 uM by Lineweaver-Burk plot analysis. The note with it: dose 0-50 µM.
Target sequence in this assay (Q9NXA8 37-310 limits assumed): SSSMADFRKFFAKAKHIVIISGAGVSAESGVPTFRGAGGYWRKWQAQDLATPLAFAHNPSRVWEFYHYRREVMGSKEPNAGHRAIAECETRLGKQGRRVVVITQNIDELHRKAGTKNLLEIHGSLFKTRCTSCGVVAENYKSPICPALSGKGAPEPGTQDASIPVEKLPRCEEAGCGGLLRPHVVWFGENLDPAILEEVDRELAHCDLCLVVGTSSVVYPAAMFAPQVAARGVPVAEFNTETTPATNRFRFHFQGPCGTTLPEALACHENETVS
For experiment [14] the target is unchanged. Put plainly: Binding affinity to human recombinant SIRT5 (34 to 269 residues) assessed as thermal stabilization by measuring change in melting temperature at 100 uM and measured after 10 mins by SYPRO orange dye based thermal shift assay.
Target sequence in this assay (Q9NXA8 37-310 limits assumed): as above
Experiment [15] has the same target. Put plainly: Binding affinity to human recombinant SIRT5 (34 to 269 residues) assessed as thermal stabilization by measuring melting temperature at 50 uM and measured after 10 mins by SYPRO orange dye based thermal shift assay.
Target sequence in this assay (Q9NXA8 37-310 limits assumed): as above
Experiment [16] has the same target. Put plainly: Binding affinity to human recombinant SIRT5 (34 to 269 residues) assessed as thermal stabilization by measuring melting temperature at 100 uM and measured after 10 mins by SYPRO orange dye based thermal shift assay.
Target sequence in this assay (Q9NXA8 37-310 limits assumed): as above
The target is the same in experiment [17]. Put plainly: Binding affinity to human recombinant SIRT5 (34 to 269 residues) assessed as thermal stabilization by measuring change in melting temperature at 50 uM and measured after 10 mins by SYPRO orange dye based thermal shift assay.
Target sequence in this assay (Q9NXA8 37-310 limits assumed): as above

With `O=C(O)CCNC(=S)NCCCNc1nc(Nc2ccccc2Cl)nc(NC2CCC2)n1`, the IC50 in experiment [1] was found to be 25.1 µM.

`Cc1c(Br)cccc1Nc1nc(NCCCNC(=S)NCCC(=O)O)nc(Nc2ccccc2Cl)n1`: in experiment [1], the 50% inhibitory concentration (IC50) was found to be 49.9 µM.

Turning to `O=C(O)CCNC(=S)NCCCNc1nc(NCCc2ccccc2)nc(Nc2ccccc2Cl)n1`, the half-inhibitory concentration (IC50) in [1] was 6.97 µM.

On to `CC(C)(C)OC(=O)[C@H](Nc1nc(NCCCNC(=S)NCCC(=O)O)nc(Nc2ccccc2Cl)n1)c1ccccc1`, for which the concentration for half-maximal inhibition (IC50) in [1] came out at 21.5 µM.

Take `O=C(O)CCNC(=S)NCCCNc1nc(Nc2ccccc2)nc(Nc2ccccc2Cl)n1`: the IC50 in [2] came out at 6.74 µM; in experiment [3] it was 14.2 µM; in [4] it was 5.88 µM; in experiment [5], 3.21 µM; in [6], 29.6 µM; in experiment [7], 21.9 µM. The half-maximal inhibitory concentration (IC50) worked out at 2.27 µM in [8]; 136 µM in [9]; 3.35 µM in experiment [10]; 4.68 µM in experiment [11]; 5.38 µM in [1]; 4.05 µM in experiment [12].

As for `O=C(O)CCNC(=S)NCCCNc1nc(Nc2ccccc2Cl)nc(NC2CC2)n1`, in experiment [1], the IC50 stood at 18.2 µM.

On to `O=C(O)CCNC(=S)NCCCNc1nc(Nc2ccccc2Cl)nc(N2CCCC2c2ccccc2)n1` (stereo unspecified), for which, in experiment [1], the IC50 is 13 µM.

With `O=C(O)CCNC(=S)NCCCNc1nc(Nc2ccccc2Cl)nc(NC2CCCC2)n1`, the IC50 in [1] worked out at 19.4 µM.

`O=C(O)CCNC(=S)NCCCNc1nc(NCc2ccccc2)nc(Nc2ccccc2Cl)n1`: in experiment [1], the half-maximal inhibitory concentration (IC50) was found to be 14.5 µM.

Consider `COc1cc(Nc2nc(NCCCNC(=S)NCCC(=O)O)nc(Nc3ccccc3Cl)n2)cc(OC)c1`, for which the concentration for half-maximal inhibition (IC50) in experiment [2] was 4.66 µM; in [3], 29.2 µM; in experiment [4] it was 14.3 µM; in experiment [5], 7.93 µM; in [6] it was 42.5 µM; in [7], 95.9 µM. For the same compound, the half-inhibitory concentration (IC50) in experiment [8] worked out at 4.77 µM; in experiment [9], 111 µM; in experiment [10], 4.83 µM; in [11], 3.27 µM; in [1] it was 4.07 µM; in experiment [12], 3.48 µM. Further, the inhibition result in experiment [13] is “Active”. For the same compound, the ΔTm in [14] was found to be 3.29 °C; in experiment [17], 2.91 °C. In addition, the values for the midpoint of thermal melting (Tm) in experiment [15] and in experiment [16] were 69.4 °C and 69.7 °C, respectively.

As to `CC(CCc1ccccc1)Nc1nc(NCCCNC(=S)NCCC(=O)O)nc(Nc2ccccc2Cl)n1` (stereo unspecified), the IC50 in experiment [1] was 27 µM.

For `O=C(O)CCNC(=S)NCCCNc1nc(Nc2cc(F)cc(F)c2)nc(Nc2ccccc2Cl)n1`, the IC50 in experiment [1] was found to be 21.4 µM.

As to `CC[C@H](Nc1nc(NCCCNC(=S)NCCC(=O)O)nc(Nc2ccccc2Cl)n1)c1ccccc1`, the half-inhibitory concentration (IC50) in experiment [1] stood at 9.43 µM.

For the compound `Cc1cccc(Nc2nc(NCCCNC(=S)NCCC(=O)O)nc(Nc3ccccc3Cl)n2)c1Br`, the concentration for half-maximal inhibition (IC50) in [1] came to 6.16 µM.

In general, IC50 refers to the concentration needed to halve the response being measured. Usually ΔTm stands for the shift of the melting midpoint relative to a reference. For orientation: Tm means the temperature at which the thermal transition is half complete.
